From ChEMBL document CHEMBL3045204, “Synthesis and structureantibacterial activity relationship studies of 4-substituted phenyl-4,5-dihydrobenzo[f][1,4]oxazepin-3(2H)-thiones” (2011)
In brackets after ≈: the same amount, converted by molar mass.

Tests used:
Format in all cases: functional
[1] = system: Pseudomonas aeruginosa; assay: Antibacterial activity Pseudomonas aeruginosa ATCC 27853 after 16 to 20 hr by broth microdilution method
[2] = system: Candida albicans; assay: Antifungal activity Candida albicans ATCC 90028 after 48 hr by broth microdilution method; conditions: ATCC 90028, 48 h
[3] = system: Staphylococcus aureus; assay: Antibacterial activity Staphylococcus aureus […] after 16 to 20 hr by broth microdilution method
[4] = system: Escherichia coli; assay: Antibacterial activity Escherichia coli ATCC 25922 after 16 to 20 hr by broth microdilution method
[5] = system: Enterococcus faecalis; assay: Antibacterial activity Enterococcus faecalis ATCC 29212 after 16 to 20 hr by broth microdilution method

| Structure (SMILES) | MIC [1] [µg/mL] | MIC [2] [µg/mL] | MIC [3] [µg/mL] | MIC [4] [µg/mL] | MIC [5] [µg/mL] |
| --- | --- | --- | --- | --- | --- |
| S=C1COc2ccccc2CN1c1ccccc1 | 100 (≈ 392 µM) | 800 (≈ 3130 µM) | 800 (≈ 3130 µM) | 200 (≈ 783 µM) | 100 (≈ 392 µM) |
| S=C1COc2ccccc2CN1c1cccc(Cl)c1 | 200 (≈ 690 µM) | 800 (≈ 2760 µM) | 400 (≈ 1380 µM) | 200 (≈ 690 µM) | 100 (≈ 345 µM) |
| COc1cccc(N2Cc3ccccc3OCC2=S)c1 | 50 (≈ 175 µM) | 100 (≈ 350 µM) | 200 (≈ 701 µM) | 100 (≈ 350 µM) | 25 (≈ 87.6 µM) |
| COc1ccc(N2Cc3ccccc3OCC2=S)cc1 | 100 (≈ 350 µM) | 800 (≈ 2800 µM) | 400 (≈ 1400 µM) | 200 (≈ 701 µM) | 50 (≈ 175 µM) |
| CN(C)c1ccc(N2Cc3ccccc3OCC2=S)cc1 | 100 (≈ 335 µM) | 800 (≈ 2680 µM) | 400 (≈ 1340 µM) | 200 (≈ 670 µM) | 25 (≈ 83.8 µM) |
| Cc1cccc(N2Cc3ccccc3OCC2=S)c1 | 100 (≈ 371 µM) | 800 (≈ 2970 µM) | 800 (≈ 2970 µM) | 400 (≈ 1480 µM) | 50 (≈ 186 µM) |
| FC(F)(F)c1cccc(N2Cc3ccccc3OCC2=S)c1 | 50 (≈ 155 µM) | 400 (≈ 1240 µM) | 400 (≈ 1240 µM) | 100 (≈ 309 µM) | 25 (≈ 77.3 µM) |
| O=[N+]([O-])c1ccc(N2Cc3ccccc3OCC2=S)cc1 | 50 (≈ 166 µM) | 800 (≈ 2660 µM) | > 1600 | 200 (≈ 666 µM) | 50 (≈ 166 µM) |
| Cc1ccc(N2Cc3ccccc3OCC2=S)cc1 | 25 (≈ 92.8 µM) | 200 (≈ 742 µM) | 200 (≈ 742 µM) | 200 (≈ 742 µM) | 25 (≈ 92.8 µM) |
| S=C1COc2ccccc2CN1c1ccc(Br)cc1 | 25 (≈ 74.8 µM) | 100 (≈ 299 µM) | 100 (≈ 299 µM) | 100 (≈ 299 µM) | 12.5 (≈ 37.4 µM) |
| Fc1ccc(N2Cc3ccccc3OCC2=S)cc1 | 100 (≈ 366 µM) | 400 (≈ 1460 µM) | 800 (≈ 2930 µM) | 100 (≈ 366 µM) | 50 (≈ 183 µM) |
| S=C1COc2ccccc2CN1c1ccc(I)cc1 | 50 (≈ 131 µM) | 800 (≈ 2100 µM) | 400 (≈ 1050 µM) | 100 (≈ 262 µM) | 50 (≈ 131 µM) |
| O=C(O)c1cn(C2CC2)c2cc(N3CCNCC3)c(F)cc2c1=O [CIPROFLOXACIN] |  |  | 0.25 (≈ 0.754 µM) | 0.04 (≈ 0.121 µM) | 0.25 (≈ 0.754 µM) |
| S=C1COc2ccccc2CN1c1ccc(Cl)cc1 | 100 (≈ 345 µM) | 800 (≈ 2760 µM) | 400 (≈ 1380 µM) | 400 (≈ 1380 µM) | 25 (≈ 86.3 µM) |
| OC(Cn1cncn1)(Cn1cncn1)c1ccc(F)cc1F [FLUCONAZOLE] |  | 0.25 (≈ 0.816 µM) |  |  |  |
| CC1(C)S[C@@H]2[C@H](NC(=O)[C@H](N)c3ccccc3)C(=O)N2[C@H]1C(=O)O [AMPICILLIN] |  |  | 0.78 (≈ 2.23 µM) | 6.25 (≈ 17.9 µM) | 0.78 (≈ 2.23 µM) |
| O=[N+]([O-])c1cccc(N2Cc3ccccc3OCC2=S)c1 | 25 (≈ 83.2 µM) | 200 (≈ 666 µM) | 200 (≈ 666 µM) | 100 (≈ 333 µM) | 25 (≈ 83.2 µM) |
